Assay results: ChEMBL document CHEMBL1144392, “2,3-Diaminopyridine as a platform for designing structurally unique nonpeptide bradykinin B1 receptor antagonists” (Bioorg Med Chem Lett, 2005)
pKi: −log10 of the molar value.

How the values were obtained:
B1 bradykinin receptor = molecular target: T1, B1 bradykinin receptor (Homo sapiens, UniProt P46663); assay: Inhibitory constant against human Bradykinin receptor B1 expressed in chinese hamster ovary cells; assay type: cell-based, CHO
T1 sequence (P46663 whole entry): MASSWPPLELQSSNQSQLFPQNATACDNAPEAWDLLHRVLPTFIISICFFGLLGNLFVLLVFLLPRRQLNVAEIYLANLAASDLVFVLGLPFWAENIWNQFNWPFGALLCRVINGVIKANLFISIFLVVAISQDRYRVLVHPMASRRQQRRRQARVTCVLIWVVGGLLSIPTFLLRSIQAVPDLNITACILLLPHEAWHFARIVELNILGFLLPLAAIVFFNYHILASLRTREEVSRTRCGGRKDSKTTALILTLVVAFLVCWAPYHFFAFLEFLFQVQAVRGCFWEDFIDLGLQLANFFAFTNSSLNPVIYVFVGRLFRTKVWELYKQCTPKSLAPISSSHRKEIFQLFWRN

[1] = Oral bioavailability in the Sprague Dawley rats; (n = 3); assay type: ADME, organism-based; details: rat, in vivo
[2] = Clearance in the Sprague Dawley rats; (n = 3); assay type: ADME, organism-based; details: rat, in vivo
[3] = Half life in the Sprague Dawley rats; (n = 3); assay type: ADME; details: rat, in vivo
[4] = Half life in the Sprague Dawley rats; (n = 3); ND = not determined; assay type: ADME; details: rat, in vivo

pKi (B1 bradykinin receptor) | bioavailability [1] [%] | clearance [2] [mL/min/kg] | half-life [3] [min] | half-life [4] [min] | Compound
7.48 | 95 | 15 | 18 |  | CNC(=O)c1ccccc1-c1ccc(CNc2ncccc2NC(=O)CC(F)(F)F)cc1
7.06 | 15 | 23 | 24 |  | CCCC(=O)Nc1cccnc1NCc1ccc(-c2ccccc2C(=O)OC)cc1
 | 9 | 35 |  | 12 | COC(=O)c1ccccc1-c1ccc(CNc2ncccc2NC(=O)CC(F)(F)F)cc1
7.96 | 79 | 30 | 60 |  | CNC(=O)c1ccccc1-c1ccc(CNc2nccc(C)c2NC(=O)CC(F)(F)F)cc1
6.92 |  |  |  |  | CCC(=O)Nc1cccnc1NCc1ccc(-c2ccccc2C(=O)OC)cc1
7.96 | 28 | 18 | 48 |  | COC(=O)c1ccccc1-c1ccc(CNc2ncccc2NC(=O)CC#N)cc1
6.41 |  |  |  |  | COCC(=O)Nc1cccnc1NCc1ccc(-c2ccccc2C(=O)OC)cc1
6.64 |  |  |  |  | COC(=O)c1ccccc1-c1ccc(CNc2ncccc2NC(=O)C(C)C)cc1
8.22 | 25 | 31 | 30 |  | CNC(=O)c1ccccc1-c1ccc([C@@H](C)Nc2nccc(C)c2NC(=O)CC(F)(F)F)cc1
8.74 | 17 | 8 | 54 |  | COC(=O)c1ccccc1-c1ccc([C@@H](C)Nc2nccc(C)c2NC(=O)CC(F)(F)F)cc1
7.94 | 19 | 4.3 | 120 |  | Cc1ccnc(NCc2ccc(-c3ccccc3C(=O)O)cc2)c1NC(=O)CC#N
8.59 | 27 | 18.5 | 12 |  | COC(=O)c1ccccc1-c1ccc([C@@H](C)Nc2nccc(C)c2NC(=O)CC#N)cc1
 | 2 | 30 | 12 |  | CCCCC(=O)Nc1cccnc1NCc1ccc(-c2ccccc2C(=O)OC)cc1
5.89 |  |  |  |  | COC(=O)c1ccccc1-c1ccc(CNc2ncccc2NC(=O)CN(C)C)cc1
8.15 | 40 | 14 | 24 |  | COC(=O)c1ccccc1-c1ccc(CNc2nccc(C)c2NC(=O)CC(F)(F)F)cc1
7.40 |  |  |  |  | COC(=O)c1ccccc1-c1ccc(CNc2ncccc2NC(=O)CS(C)(=O)=O)cc1
